For experiment [1], the target named is T1, human form of induced nitric oxide synthase (Homo sapiens, UniProt P35228).
T1 construct: Nitric oxide synthase was induced in cells by addition of medium containing human recombinant gamma-IFN; endogenous in cells; host or cells: DLD-1 human colorectal carcinoma cells (ECACC 90102540), induced with IFN-gamma, TNF-alpha, IL-6 and IL-1-beta
As to the kind of experiment: Screen 3: nitrite accumulation in cytokine-induced DLD-1 cells (Griess reagent). The class given is cell-based. Conditions: DLD-1 human colorectal carcinoma cells, nitrite accumulation over 5 hours. The procedure: The human colorectal carcinoma cell line, DLD-1 (obtained from the European Collection of Animal Cell Culture—cell line number 90102540) was routinely grown in RPMI 1640 supplemented with 10% (v/v) foetal bovine serum, and 2 mM L-glutamine, at 37° C. in 5% CO2. Nitric oxide synthase was induced in cells by addition of medium containing human recombinant gamma-IFN (1000 units/ml), TNF-alpha (200 U/ml), IL-6 (200 U/ml) and IL-1-beta (250 U/ml). After incubation for 18 hours at 37° C., the medium was removed and the cells washed with warm phosphate buffered saline. Cells were incubated for a further 5 hours at 37° C./5% CO2 in RPMI 1640 containing 100 μM L-arginine and 100 μM verapamil-HCl in the presence and absence of test compounds. Nitrite accumulation was determined by mixing an equal volume of culture media with Griess reagent (10 mg/ml sulphanilamide, 1 mg N-(1-naphthyl)ethylenediamine in 1 ml 2.5% (v/v) phosphoric acid). Inhibition in the presence of compounds was calculated relative to the nitrite levels produced by untreated cells. IC50 values were estimated from a semi-log plot of % inhibition versus concentration of compound.
On the technique in general: The Griess reaction detects nitrite, a stable product of nitric oxide.

For experiment [2], the target named is T2, Nitric oxide synthase (Mus musculus, UniProt P29477).
T2 construct: endogenous in cells; host or cells: J774A-1 murine macrophage cell line, induced with LPS and IFN-gamma; crude lysate
As to the kind of experiment: Screen 1: nitric oxide synthase inhibition, 3H-L-arginine to 3H-L-citrulline conversion, lysate of induced J774A-1 cells. In kind it is biochemical. Conditions: enzyme from LPS/IFNg-induced murine macrophage cell line J774A-1; 1 hour at room temperature. As to the method:
The activity of compounds of formula (I), or a pharmaceutically acceptable salt, enantiomer or racemate thereof, may be screened for nitric oxide synthase inhibiting activity by a procedure based on that of Förstermann et al., Eur. J. Pharm., 1992, 225, 161-165. Nitric oxide synthase converts ^3H-L-arginine into ^3H-L-citrulline which can be separated by cation exchange chromatography and quantified by liquid scintillation counting.
Enzyme is prepared, after induction, from the cultured murine macrophage cell line J774A-1 (obtained from the laboratories of the Imperial Cancer Research Fund). J774A-1 cells are cultured in Dulbeccos Modified Eagles Medium (DMEM) supplemented with 10% foetal bovine serum, 4 mM L-glutamine and antibiotics (100 units/ml penicillin G, […] streptomycin & […] amphotericin B). Cells are routinely grown in […] flasks containing 35 ml medium kept at 37° C. and in a humidified atmosphere containing 5% CO2. […]
Labelled L-citrulline is separated from labelled L-arginine using Dowex AG-50W. […] After allowing the samples to dry the L-citrulline is quantified by scintillation counting.
In a typical experiment basal activity is 300 dpm per 75 μl sample which is increased to 1900 dpm in the reagent controls. […] Compounds are tested at a range of concentrations and from the inhibitions obtained IC50 values are calculated. […]

In experiment [3] the target is T3, Recombinant human iNOS (Homo sapiens, UniProt P35228).
T3 construct: made in house; host or cells: E. coli (lysate)
Put plainly: Screen 2: recombinant human NO synthase inhibition, L-[3H]citrulline formation. Conditions: recombinant human iNOS expressed in E. coli; 60 min pre-incubation with NADPH. In kind it is biochemical. The procedure: Recombinant human NO synthases (iNOS, eNOS & nNOS) were expressed in E. coli and lysates were prepared in Herpes buffer (pH 7.4) containing co-factors (FAD, FMN, H4B), protease inhibitors, lysozyme and the detergent, CHAPS. These preparations were used, at suitable dilution, to assess inhibition of the various isoforms. Inhibition of NOS was determined by measuring the formation of L-[^3H]citrulline from L-[^3H]arginine using an adaptation of the method of Förstermann et al.^9 Enzyme assays were performed in the presence of 3 μM [^3H]arginine, 1 mM NADPH and other co-factors required to support NOS activity (FAD, FMN, H4B, calmodulin, Ca^2+). […] Incubations continued for a further 60 min before the assays were quenched and [^3H]citrulline separated from unreacted substrate by chromatography on Dowex-50W resin in a 96-well format.

SMILES strings stand for the structures. Where a name gives a salt, the structure may show the parent alone. Where only a bound is given, the exact number is not on record here.

In general, IC50 refers to the midpoint of a concentration-inhibition curve.

Turning to `Cc1cc(S[C@H](CN)c2ccccc2)c(C#N)s1` [Example 1, 3-[[(1S)-2-Amino 1-phenylethyl]thio]-5-methyl-2-thiophenecarbonitrile oxalate], the IC50 in experiment [1] is below 100 µM; in experiment [2] it was below 10 µM; in experiment [3] it was below 10 µM.

The values above are taken from patent US7329686B2, “Substituted thiophene compounds” (AstraZeneca AB, priority 2002, dated 2008).
